In article PMC2994747, “Molecular Characterization of c-Abl/c-Src Kinase Inhibitors Targeted against Murine Tumour Progenitor Cells that Express Stem Cell Markers” (PLoS ONE, 2010):
Structures can show the parent of a compound that is named as a salt. Where two headings read alike, the source gives them in different places.

Assays:
leukaemia cells = conditions: cited from earlier work
A549 [1] = experiment: Cell cycle analysis by flow cytometry; type: cell-based, human; conditions: IC50 concentration, 96 h
Protocol: (§1) CycleTEST™ PLUS DNA Reagent Kit (Becton Dickinson GmbH, Heidelberg, Germany) for cell cycle analysis was used, according to the instructions of the manufacturer. Briefly, the cells were harvested with trypsin, washed with PBS, and resuspended in CycleTEST Buffer. The cells were centrifuged and resuspended in solution A. After incubation for 10 min at room temperature, solution B was added and incubated. After adding solution C, the samples were incubated at 4°C protected from light. The samples were stored on ice and protected from light until analysis by FACScan flow cytometer (Becton Dickinson GmbH, Heidelberg, Germany).

CaCo2 [2] = experiment: Cell cycle analysis by flow cytometry; type: cell-based, human; conditions: IC50 concentration, 96 h
Protocol: as §1

HepG2 [3] = experiment: Cell cycle analysis by flow cytometry; type: cell-based, human; conditions: IC50 concentration, 96 h
Protocol: as §1

A549 [4] = experiment: MTS cell viability assay; type: cell-based, human; conditions: Homo sapiens
Protocol: (§2) Three human and eleven murine cancer cell lines were used. The human NSCLC cell line A549 (ACC 107) and the human colorectal carcinoma cell line CaCo2 (ACC 169) were obtained from Deutsche Sammlung von Mikroorganismen und Zellkulturen (DSMZ, Braunschweig, Germany). The human hepatocellular carcinoma cell line HepG2 (HB-8065) was obtained from American Type Culture Collection (Manassas, VA, USA). The 11 murine NSCLC cell lines were established as described recently. Cells were grown in monolayer cultures in DMEM containing 10% foetal calf serum, 4 mmol/l L-glutamine and 2% Penicillin/Streptomycin at 37°C in a humidified atmosphere of 95% air and 5% CO2.
(§3) Cell culture viability was monitored by CellTiter96® AQueous One Solution Cell Proliferation Assay (Promega GmbH, Mannheim, Germany). The cells were seeded in triplicates in 96-well microtitre plates and treated with the dual kinase inhibitors or vehicle (0.2% DMSO). After 24 h or 96 h of treatment the MTS tetrazolium reagent was added to the cells and incubated for 1 h. Absorbance at 490 nm was assayed with a Victor3 Wallac 1420 Multilabel counter (PerkinElmer, Waltham, MA, USA).

CaCo2 [5] = experiment: MTS cell viability assay; type: cell-based, human; conditions: Homo sapiens
Protocol: as §2, §3

HepG2 [6] = experiment: MTS cell viability assay; type: cell-based, human; conditions: Homo sapiens
Protocol: as §2, §3

BetaD5 [7] = experiment: MTS cell viability assay; type: cell-based, mouse; conditions: Mus musculus
Protocol: as §2, §3

A2C12 [8] = experiment: MTS cell viability assay; type: cell-based, mouse; conditions: Mus musculus
Protocol: as §2, §3

GammaD12 [9] = experiment: MTS cell viability assay; type: cell-based, mouse; conditions: Mus musculus, MTS
Protocol: as §2, §3

GammaA3 [10] = experiment: MTS cell viability assay; type: cell-based, mouse; conditions: Mus musculus
Protocol: as §2, §3

BetaD5 [11] = experiment: Cell cycle analysis by flow cytometry; type: cell-based, mouse; conditions: IC50 concentration, 96 h
Protocol: as §1

A2C12 [12] = experiment: Cell cycle analysis by flow cytometry; type: cell-based, mouse; conditions: IC50 concentration, 96 h
Protocol: as §1

GammaD12 [13] = experiment: Cell cycle analysis by flow cytometry; type: cell-based, mouse; conditions: IC50 concentration, 96 h
Protocol: as §1

GammaA3 [14] = experiment: Cell cycle analysis by flow cytometry; type: cell-based, mouse; conditions: IC50 concentration, 96 h
Protocol: as §1

c-Abl = target: T1, c-Abl (Homo sapiens, UniProt P00519); experiment: Abl filter-binding kinase assay (Abtide, [γ-32P]ATP); type: biochemical; conditions: isolated Abl; calculated from ID50, ATP-competitive; E0 0.005, S0 0.012 µM
T1 construct: His tag; purchased Upstate (Lake Placid, NY, USA)
T1 sequence (P00519 whole entry): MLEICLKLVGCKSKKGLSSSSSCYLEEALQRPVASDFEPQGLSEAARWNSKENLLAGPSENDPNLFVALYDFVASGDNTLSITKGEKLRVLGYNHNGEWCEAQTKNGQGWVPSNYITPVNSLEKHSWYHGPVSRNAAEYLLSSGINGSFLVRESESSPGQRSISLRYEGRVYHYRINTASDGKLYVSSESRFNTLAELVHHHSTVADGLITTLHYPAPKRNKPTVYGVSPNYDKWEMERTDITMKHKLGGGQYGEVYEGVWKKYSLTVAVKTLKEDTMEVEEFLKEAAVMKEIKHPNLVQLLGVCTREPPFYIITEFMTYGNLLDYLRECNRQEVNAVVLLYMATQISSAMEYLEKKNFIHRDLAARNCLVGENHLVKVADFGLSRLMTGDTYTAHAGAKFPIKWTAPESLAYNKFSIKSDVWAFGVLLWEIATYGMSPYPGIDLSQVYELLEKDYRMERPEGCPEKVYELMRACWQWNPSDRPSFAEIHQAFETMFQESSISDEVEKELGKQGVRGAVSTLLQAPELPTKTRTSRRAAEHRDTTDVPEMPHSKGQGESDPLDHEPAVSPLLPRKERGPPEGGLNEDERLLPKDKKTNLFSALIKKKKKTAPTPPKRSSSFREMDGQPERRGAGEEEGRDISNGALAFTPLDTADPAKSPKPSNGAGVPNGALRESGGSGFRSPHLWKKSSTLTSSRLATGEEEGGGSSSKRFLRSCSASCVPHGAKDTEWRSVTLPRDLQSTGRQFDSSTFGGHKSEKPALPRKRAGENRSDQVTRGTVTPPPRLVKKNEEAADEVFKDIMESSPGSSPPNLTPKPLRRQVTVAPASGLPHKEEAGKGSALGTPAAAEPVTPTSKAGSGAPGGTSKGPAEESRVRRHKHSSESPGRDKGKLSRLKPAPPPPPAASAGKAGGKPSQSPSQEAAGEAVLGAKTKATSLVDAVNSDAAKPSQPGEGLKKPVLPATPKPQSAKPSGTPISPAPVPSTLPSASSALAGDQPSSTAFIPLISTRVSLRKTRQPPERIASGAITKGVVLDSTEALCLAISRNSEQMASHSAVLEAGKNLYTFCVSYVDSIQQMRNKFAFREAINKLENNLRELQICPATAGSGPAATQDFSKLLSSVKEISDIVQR
Protocol: (§4) Baculovirus-produced recombinant purified his-tagged active against human Src and Abl were purchased from Upstate (Lake Placid, NY, USA).
(§5) Src activity was measured in a filter-binding assay using the Src Assay Kit (Upstate, Lake Placid, NY, USA), according to the manufacturer's protocol, using the specific Src peptide substrate [[…]] in the presence of 0.125 pmol of Src and 0.160 pmol of [γ-^32P]ATP. Abl activity was measured in a filter-binding assay using an Abl specific peptide substrate (Abtide, Upstate). Reaction conditions were (in a final volume of 10 µl): 25 mM Tris-HCl pH 7.5, 1 mM DTT, 0.012 µM [γ-^32P]ATP, 0.022 µM c-Abl. Reactions were incubated 10 min at 30°C.The samples (9 µl) were spotted on paper cellulose filters which were washed according to the manufacturer's protocol. Filter-bound radioactivity was measured by liquid scintillation with a Microbeta-Trilux apparatus (PerkinElmer, Waltham, MA, USA).
(§6) The ID50 were converted to Ki according to a competitive mechanism with respect to the substrate ATP. […] Since (i) the ATP concentration was limiting, i.e., [ATP], Km(ATP), and (ii) the enzyme concentration was not negligible with respect to the ATP concentration, the classical Cheng-Prusoff relationship was not applicable. Consequently, Ki values were calculated according to [drawing 3] (2) where S0 is the concentration of the competing substrate (ATP) and E0 is the concentration of the enzyme. Each experiment was done in triplicate and mean values were used for the interpolation. Curve fitting was performed with the program GraphPad Prism.

c-Src = target: T2, c-Src (Homo sapiens, UniProt P12931); experiment: Src filter-binding kinase assay (Src Assay Kit); type: biochemical; conditions: isolated Src; calculated from ID50, ATP-competitive; E0 0.005, S0 0.012 µM
T2 construct: His tag; purchased Upstate (Lake Placid, NY, USA)
T2 sequence (P12931 whole entry): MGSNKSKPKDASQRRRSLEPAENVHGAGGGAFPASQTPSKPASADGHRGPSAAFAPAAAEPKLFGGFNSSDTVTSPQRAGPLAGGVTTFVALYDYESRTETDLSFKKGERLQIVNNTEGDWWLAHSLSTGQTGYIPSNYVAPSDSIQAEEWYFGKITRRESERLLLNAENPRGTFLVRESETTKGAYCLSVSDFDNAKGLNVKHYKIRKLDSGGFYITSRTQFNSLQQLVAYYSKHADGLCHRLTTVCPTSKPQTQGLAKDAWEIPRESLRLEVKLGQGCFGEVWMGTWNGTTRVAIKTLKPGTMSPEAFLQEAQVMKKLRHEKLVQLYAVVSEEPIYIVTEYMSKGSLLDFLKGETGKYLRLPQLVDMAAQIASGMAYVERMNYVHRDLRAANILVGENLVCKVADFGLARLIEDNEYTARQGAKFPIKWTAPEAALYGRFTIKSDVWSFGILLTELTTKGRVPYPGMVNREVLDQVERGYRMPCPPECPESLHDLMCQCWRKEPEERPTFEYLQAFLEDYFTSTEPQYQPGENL
Protocol: as §4, §5, §6

[15] = A549, 24 h, 24 h, read-out: Calculated IC50 after single treatment for 24 h
[16] = A549, 96 h, 96 h, read-out: Calculated IC50 after daily treatment for 96 h
[17] = Caco-2, 24 h, read-out: Calculated IC50 after single treatment for 24 h
[18] = Caco-2, 96 h, read-out: Calculated IC50 after daily treatment for 96 h
[19] = 24 h, read-out: Calculated IC50 after single treatment for 24 h
[20] = 96 h, read-out: Calculated IC50 after daily treatment for 96 h

IC50 (A549 [4]; [15])	IC50 (A549 [4]; [16])	IC50 (CaCo2 [5]; [17])	IC50 (CaCo2 [5]; [18])	IC50 (HepG2 [6]; [19])	IC50 (HepG2 [6]; [20])	Compound	Cells in G1 phase (A549 [1])	Cells in G2 phase (A549 [1])	Cells in S phase (A549 [1])	Cells in G1 phase (CaCo2 [2])	Cells in G2 phase (CaCo2 [2])	Cells in S phase (CaCo2 [2])	Cells in G1 phase (HepG2 [3])	Cells in G2 phase (HepG2 [3])	Cells in S phase (HepG2 [3])	IC50 (BetaD5 [7]; [19])	IC50 (BetaD5 [7]; [20])	IC50 (A2C12 [8]; [19])	IC50 (A2C12 [8]; [20])	IC50 (GammaD12 [9]; [19])	further results
						Cc1ccc(NC(=O)c2ccc(CN3CCN(C)CC3)cc2)cc1Nc1nccc(-c2cccnc2)n1 [Imatinib, Imatinib mesylate]															Antiproliferative effect for leukaemia cells (leukaemia cells): submicromolar range
> 100 µM	8.1 ± 0.7 µM	89.2 ± 4.6 µM	6.8 ± 0.9 µM	89.2 ± 4.6 µM	16.9 ± 2.6 µM	CC(C)Sc1nc(NCCc2ccccc2)c2cnn(CC(Cl)c3ccccc3)c2n1 (stereo not shown) [Si142]	75.4%	2.2%	25.7%	55.6%	11.5%	32.9%	53.5%	7.9%	38.6%	11 ± 0.7 µM	8.7 ± 0.7 µM	40.4 ± 2.1 µM	5.3 ± 0.2 µM	11.8 ± 1.6 µM	melting point: 125 to 126 °C; IC50 (GammaD12 [9]; [20]): 7.7 ± 0.5 µM; IC50 (GammaA3 [10]; [19]): 18.7 ± 4 µM; IC50 (GammaA3 [10]; [20]): 7.1 ± 0.5 µM; Cells in G1 phase (BetaD5 [11]): 53.6%; Cells in G2 phase (BetaD5 [11]): 25.8%; Cells in S phase (BetaD5 [11]): 20.6%; Cells in G1 phase (A2C12 [12]): 71.3%; Cells in G2 phase (A2C12 [12]): 13.4%; Cells in S phase (A2C12 [12]): 15.3%; Cells in G1 phase (GammaD12 [13]): 33.7%; Cells in G2 phase (GammaD12 [13]): 6.6%; Cells in S phase (GammaD12 [13]): 59.7%; Cells in G1 phase (GammaA3 [14]): 67%; Cells in G2 phase (GammaA3 [14]): 15.5%; Cells in S phase (GammaA3 [14]): 17.5%; Ki (c-Abl): 0.12 µM; Ki (c-Src): 2 µM
19.8 ± 2.8 µM	5.7 ± 0.3 µM	32.2 ± 1.7 µM	5.7 ± 0.6 µM	32.2 ± 1.7 µM	11.4 ± 1.7 µM	Cc1nc(Nc2cccc(Cl)c2)c2cnn(CC(Cl)c3ccccc3)c2n1 (stereo not shown) [Si167]	61.5%	6.7%	31.8%	52.7%	18%	29.3%	57.8%	10.6%	31.6%	12.4 ± 1 µM	9.3 ± 0.6 µM	16.4 ± 0.8 µM	10.6 ± 0.9 µM	19.5 ± 0.8 µM	IC50 (GammaD12 [9]; [20]): 9 ± 0.9 µM; IC50 (GammaA3 [10]; [19]): 20.5 ± 1.2 µM; IC50 (GammaA3 [10]; [20]): 16.8 ± 3.2 µM; Cells in G1 phase (BetaD5 [11]): 74.7%; Cells in G2 phase (BetaD5 [11]): 18.7%; Cells in S phase (BetaD5 [11]): 6.6%; Cells in G1 phase (A2C12 [12]): 55.7%; Cells in G2 phase (A2C12 [12]): 13.1%; Cells in S phase (A2C12 [12]): 31.2%; Cells in G1 phase (GammaD12 [13]): 42%; Cells in G2 phase (GammaD12 [13]): 9.4%; Cells in S phase (GammaD12 [13]): 48.6%; Cells in G1 phase (GammaA3 [14]): 73.2%; Cells in G2 phase (GammaA3 [14]): 15.1%; Cells in S phase (GammaA3 [14]): 11.7%; Ki (c-Abl): 0.5 µM; Ki (c-Src): 0.362 µM
